Measured values taken from patent EP0518216A2, “N-/Arylethyl/-N-alkyl-2-(1-pyrrolidinyl)ethylamine derivatives for CNS disorders” (G.D. Searle & Co., priority 1991, dated 1992).

Key:
[1] = system: dynorphin A induced spinal cord injury model; test: Dynorphin A induced spinal cord injury model (hindlimb motor function); format: in vivo, rat
Description: Neuroprotective properties of BD-1008 and selected compounds of this invention have been evaluated in the dynorphin A induced spinal cord injury model. Along with several other neuropeptides, dynorphin A has potent vasoconstrictory effects on the vasculature of the rat brain and spinal cord; thus it provides a convenient, reproducible pharmacological means to induce and study ischemic central nervous system injury. Furthermore, localized effects of this peptide on the lumbosacral spinal cord following L4-L5 intervertebral injection allows for simple and straightforward neurological appraisals through assessment of hindlimb motor function.

Sigma receptors = test: Sigma receptor binding assay with [3H]-(+)-3-PPP, crude P2 membranes; conditions: guinea pig brain membranes; determined in independent experiments
Protocol: Sigma receptors were labeled with [^3H]-(+)-3-PPP (109 Ci/mmol).
For most compounds in the study, a concentration range of 0.0005-100 nM was appropriate. […] Twelve concentrations of unlabelled ligand were incubated with 3 nM [^3H](+)-3-PPP as described in Methods. The CDATA iterative curve fitting program (EMF Software, Inc., Baltimore, MD) was used to determine IC50 values. Values are the average of 2-4 experiments, ±SEM. Each experiment was carried out in duplicate. The Cheng-Prussoff equation^27 was then used to convert IC50 values to apparent Ki values.

PCP receptors = test: Phencyclidine (PCP) receptor binding assay with [3H]TCP; conditions: guinea pig brain; determined in independent experiments

CN(CCc1ccc(Cl)c(Cl)c1)CCN1CCCC1 [BD-1008]
impact on the primary vascular responses to dynorphin A ([1]; dynorphin A-induced reduction in lumbosacral blood flow): without any measurable impact
neurological recovery from the flaccid hindlimb paralysis ([1]; paralysis from a 20 nanomole dose of dynorphin A, L4-L5 intervertebral injection): significantly improves neurological recovery

CCCN1CCC[C@H](c2cccc(O)c2)C1 [[^3H]-(+)-3-PPP]
Kd (Sigma receptors): 27.4 nM

c1csc(C2(N3CCCCC3)CCCCC2)c1 [[^3H]TCP]
Kd (PCP receptors): 25 nM
